According to ChEMBL document CHEMBL1141296, “Brunneins A-C, beta-carboline alkaloids from Cortinarius brunneus” (J Nat Prod, 2007):

Experiments:
[1] = test system: PC-3; experiment: Cytotoxicity against human PC3 cells upto 100 uM after 24 hrs by XTT method; type: functional, cell-based
[2] = target: T1, Acetylcholinesterase (Bos taurus) (UniProt P23795); experiment: Inhibition of bovine AChE at 100 uM by Ellman's method
T1 sequence (whole entry): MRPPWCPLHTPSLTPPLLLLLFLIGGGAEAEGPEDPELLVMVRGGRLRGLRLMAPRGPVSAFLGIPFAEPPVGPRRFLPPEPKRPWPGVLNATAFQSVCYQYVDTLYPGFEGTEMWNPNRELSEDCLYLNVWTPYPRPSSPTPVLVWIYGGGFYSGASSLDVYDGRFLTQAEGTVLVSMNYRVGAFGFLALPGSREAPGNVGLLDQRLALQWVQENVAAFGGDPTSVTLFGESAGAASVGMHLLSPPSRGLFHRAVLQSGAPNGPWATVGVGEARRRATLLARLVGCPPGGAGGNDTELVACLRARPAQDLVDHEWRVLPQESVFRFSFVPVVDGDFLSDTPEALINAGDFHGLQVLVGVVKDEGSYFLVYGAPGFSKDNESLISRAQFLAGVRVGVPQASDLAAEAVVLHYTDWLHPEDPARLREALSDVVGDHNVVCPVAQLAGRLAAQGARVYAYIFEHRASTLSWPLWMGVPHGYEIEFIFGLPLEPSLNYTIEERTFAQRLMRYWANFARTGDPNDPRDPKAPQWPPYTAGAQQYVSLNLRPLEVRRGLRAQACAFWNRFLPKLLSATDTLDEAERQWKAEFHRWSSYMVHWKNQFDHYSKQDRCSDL

[3] = target: Butyrylcholinesterase (Equus caballus) (UniProt Q9N1N9); experiment: Inhibition of equine BChE at 100 uM by Ellman's method

Question: What does the source list for `CC1=N[C@H](C(=O)O)Cc2c1[nH]c1cc(O)ccc21`?
Answer: Activity [1]: Not toxic; inhibition [2]: < 50%; inhibition [3]: < 50%
